US12544373B2, “Treatment of cancer, inflammatory diseases and autoimmune diseases” (Usher III Initiative, Inc., priority 2020, dated 2026)
pIC50: −log10 of the molar value. Read-outs that look alike come from different tables or passages of the source.

Experiments:
Format in all cases: cell-based, human
PRXF PC-3 = assay: CellTiter-Blue Cell Viability Assay (Example 2), prostate; settings: for T/C %: 72 h
Description: (§1) The CellTiter-Blue® Cell Viability Assay was used to assess the viability of cells from various cancer cell lines, in the presence or absence of Compound 85 (at different concentrations). This assay provides a homogeneous, fluorometric method for estimating the number of viable cells present in multi-well plates. Viable cells retain the ability to reduce resazurin to resorufin, which is highly fluorescent. […] The fluorescence produced is proportional to the number of viable cells. There is a linear relationship between cell number and fluorescence.
(§2) Cancer cells (see Table 6) were harvested from exponential phase cultures, counted and plated in 96 well flat-bottom microtiter plates, at a cell density 6,000-20,000 cells/well, depending on the cell line's growth rate. The culture medium was supplemented with 10% (v/v) foetal calf serum and 50 μg/mL gentamicin (140 μL/well). Cultures were incubated at 37° C. and 5% CO2 in a humidified atmosphere.
(§3) Compound 85 was serially diluted in DMSO, and five Compound 85 concentrations in half-log increments were used: 0.03 μM, 0.09 μM, 0.30 μM, 1.0 μM, and 3.0 μM. After 24 h, 10 μL of Compound 85 (dissolved in DMSO) or control (DMSO) medium were added, in duplicates, and left on the cells for another 72 h. Compound 85 solutions were added to the assay plates using a Tecan Freedom EVO 200 robotic platform. The DMSO concentration was kept constant at 0.3% v/v across the assay plate.
(§4) After incubation of up to 72 hours, fluorescence (FU) was measured using the EnSpire® multimode plate reader (Perkin Elmer) (excitation λ=570 nm, emission λ=600 nm).
(§5) Cancer cell lines used: Compound 85's anti-cancer effect was tested in 20 human cancer-cell lines representing nine cancer types (Table 6).
(§6) The percentage of viable cells in the presence of Compound 85 (Test condition, T), at different concentrations, are presented in Table 7 and expressed as a percentage of the number of viable cells in the presence of DMSO without Compound 85 (Control condition, C).
(§7) The relative IC50 is determined as the Compound 85 concentration giving a response halfway between the maximum cell viability signal (i.e., a 100% cell viability, no Compound 85 response) and the minimal viability signal (i.e. maximum cell viability inhibition achieved by Compound 85), in a sigmoidal concentration-effect curve.
(§8) The absolute IC50 is determined as the concentration that is associated with a T/C ratio of 50%.

PRXF DU-145 = assay: as above; settings: for T/C %: 72 h
Description: as §1, §2, §3, §4, §5, §6, §7, §8

OVXF A2780 = assay: CellTiter-Blue 2D monolayer assay (Example 1), ovarian; settings: for Test/Control (%): 72 h
Experimental: (§9) Compound 85 was assessed in 10 human tumor cell lines (see Table 3) for anti-cancer activity in vitro using a CellTiter-Blue® based 2D monolayer assay.
(§10) CellTiter-Blue® Cell Viability Assay: Tumor cells were grown at 37° C. in a humidified atmosphere with 5% CO2 in RPMI medium, supplemented with 10% (v/v) fetal calf serum and 50 μg/ml gentamicin (140 μl/well). Cultures were incubated at 37° C. and 5% CO2 in a humidified atmosphere. After 24 hours, 10 μl of Compound 85 was added, and left on the cells for another 72 hours (incubation period). Compound 85 was tested at 5 concentrations (0.003 μM, 0.03 μM, 0.3 μM, 3 μM, and 30 μM) and serially diluted in DMSO, mixed with cell culture medium, and added to the assay plates by using a Tecan Freedom EVO 200 robotic platform. The DMSO concentration was kept constant at 0.3% yip across the assay plate. Every 96 well plate included six DMSO-treated control wells and Compound 85-treated wells in duplicate at 5 concentrations. Viability of cells was quantified using the CellTiter-Blue® cell viability assay (Promega G8081). After incubation of cells, the CellTiter-Blue® reagent was brought to ambient temperature. Next, 20 μl of CellTiter-Blue® reagent were added to each well. After incubation tier up to 4 hours, fluorescence (FU) was measured using the EnSpire® multimode plate reader (Perkin Elmer) ([…]).
(§11) Data Evaluation: Sigmoidal concentration-response curves were fitted to the data points (test-versus-control; T/C values) obtained for each tumor model using 4 parameter non-linear curve fit (Charles River DRS Datawarehouse Software). Drug effects are expressed in terms of the percentage of the fluorescence signal, obtained by comparison of the mean signal in the treated wells with the mean signal of the untreated controls (T/C-value [%]) (Table 4). IC50 and IC70 values were reported as relative and absolute IC50 and IC70 values (Table 5). The absolute IC50 and IC70 values reflect the concentration of Compound 85 that achieves T/C=50% and T/C=30%, respectively. The relative IC50 value is the concentration of Compound 85 that gives a response half way between the top and bottom plateau of the sigmoidal concentration-response curve (inflection point of the curve).

PAXF 1657 = assay: CellTiter-Blue Cell Viability Assay (Example 2), pancreatic; settings: for T/C %: 72 h
Description: as §1, §2, §3, §4, §5, §6, §7, §8

PAXF HUP-T3 = assay: as above; settings: for T/C %: 72 h
Description: as §1, §2, §3, §4, §5, §6, §7, §8

CNXF U-87 MG = assay: CellTiter-Blue 2D monolayer assay (Example 1), glioblastoma; settings: for Test/Control (%): 72 h
Experimental: as §9, §10, §11

In the case of `CC(C)(O)Cn1nc(-c2ccccc2)c2c(Cl)c(-c3ccccc3)nnc21` [Compound 85], the “Absolute IC70” value (PRXF PC-3) was 1349 nM, the “Relative IC70” value (PRXF PC-3) was 1326 nM and the T/C % (PRXF PC-3; 0.03 μM) was 104%. The T/C % (PRXF PC-3; 0.095 μM) was 103%, the T/C % (PRXF PC-3; 0.3 μM) was 103% and the T/C % (PRXF PC-3; 0.95 μM) was 2%. It also gave a T/C % (PRXF PC-3; 3.0 μM) of 1%, a pIC50 (PRXF PC-3; read-out: Absolute IC50) of 5.96 and a pIC50 (PRXF PC-3; read-out: Relative IC50) of 5.97. The “Absolute IC70” value (PRXF DU-145) was 1528 nM, the “Relative IC70” value (PRXF DU-145) was 1376 nM and the T/C % (PRXF DU-145; 0.03 μM) was 100%. The T/C % (PRXF DU-145; 0.095 μM) was 110%, the T/C % (PRXF DU-145; 0.3 μM) was 102% and the T/C % (PRXF DU-145; 0.95 μM) was 11%. It also gave a T/C % (PRXF DU-145; 3.0 μM) of 6%, a pIC50 (PRXF DU-145; read-out: Absolute IC50) of 5.96 and a pIC50 (PRXF DU-145; read-out: Relative IC50) of 6.00. The “Rel. IC70” value (OVXF A2780) was 1872 nM, the “Test/Control (%)” value (OVXF A2780; 0.003 μM) was 101% and the “Test/Control (%)” value (OVXF A2780; 0.03 μM) was 94%. For the same compound, the “Test/Control (%)” value (OVXF A2780; 0.3 μM) was 101%, the “Test/Control (%)” value (OVXF A2780; 3 μM) was 1% and the “Test/Control (%)” value (OVXF A2780; 30 μM) was 0%. For the same compound, the “Abs. IC70” value (OVXF A2780; T/C=30%) was 1868 nM, the pIC50 (OVXF A2780; T/C=50%, read-out: Abs. IC50) was 5.77 and the “Bot. (%)” value (OVXF A2780; bottom plateau of curve) was 0%. For the same compound, the pIC50 (OVXF A2780; read-out: Rel. IC50) was 5.77, the “Top (%)” value (OVXF A2780; top plateau of curve) was 99% and the “Absolute IC70” value (PAXF 1657) was 1166 nM. For the same compound, the “Relative IC70” value (PAXF 1657) was 1169 nM, the T/C % (PAXF 1657; 0.03 μM) was 97% and the T/C % (PAXF 1657; 0.095 μM) was 94%. For the same compound, the T/C % (PAXF 1657; 0.3 μM) was 97%, the T/C % (PAXF 1657; 0.95 μM) was 66% and the T/C % (PAXF 1657; 3.0 μM) was 1%. For the same compound, the pIC50 (PAXF 1657; read-out: Absolute IC50) was 5.98, the pIC50 (PAXF 1657; read-out: Relative IC50) was 5.98 and the “Absolute IC70” value (PAXF HUP-T3) was 723 nM. The “Relative IC70” value (PAXF HUP-T3) was 602 nM, the T/C % (PAXF HUP-T3; 0.03 μM) was 95% and the T/C % (PAXF HUP-T3; 0.095 μM) was 102%. It also gave a T/C % (PAXF HUP-T3; 0.3 μM) of 88%, a T/C % (PAXF HUP-T3; 0.95 μM) of 21% and a T/C % (PAXF HUP-T3; 3.0 μM) of 16%. The pIC50 (PAXF HUP-T3; read-out: Absolute IC50) was 6.27, the pIC50 (PAXF HUP-T3; read-out: Relative IC50) was 6.31 and the “Rel. IC70” value (CNXF U-87 MG) was 987 nM. The “Test/Control (%)” value (CNXF U-87 MG; 0.003 μM) was 99%, the “Test/Control (%)” value (CNXF U-87 MG; 0.03 μM) was 102% and the “Test/Control (%)” value (CNXF U-87 MG; 0.3 μM) was 102%. For the same compound, the “Test/Control (%)” value (CNXF U-87 MG; 3 μM) was 1%, the “Test/Control (%)” value (CNXF U-87 MG; 30 μM) was 4% and the “Abs. IC70” value (CNXF U-87 MG; T/C=30%) was 994 nM. The pIC50 (CNXF U-87 MG; T/C=50%, read-out: Abs. IC50) was 6.03, the “Bot. (%)” value (CNXF U-87 MG; bottom plateau of curve) was 3% and the pIC50 (CNXF U-87 MG; read-out: Rel. IC50) was 6.03. The “Top (%)” value (CNXF U-87 MG; top plateau of curve) was 101%.
